Consider two molecules from patent publication US20250320194A1, “PHARMACEUTICALLY ACCEPTABLE SALT AND CRYSTAL FORM OF FUSED PYRIDINE RING DERIVATIVE AND PREPARATION METHOD THEREFOR” (Jiangsu Hengrui Pharmaceuticals Co., Ltd., priority 2021, published 2025).

In one series the target is T1, HIV-1 capsid protein (Human immunodeficiency virus type 1 group M subtype B, UniProt P12493).
T1 construct: made in house
The series is described as follows: In vitro polymerization of HIV-1 capsid protein (HTRF, His-CA/GST-CA). It is filed as biochemical, HIV-1 NL4-3. From the text:
• 1. MAb Anti GST-Eu cryptate (Cisbio) • 2. MAb Anti 6HIS-XL665 (Cisbio) • 3. His tag HIV-1 capsid protein (hereinafter referred to as His-CA) • 4. GST tag HIV-1 capsid protein (hereinafter referred to as GST-CA) • 5. 384-well unbound surface microplate, white (Corning) • 6. Microplate reader (BMG)
The HIV-1 capsid proteins aggregate spontaneously in high-salt solutions. Capsid protein derived from HIV-1 NL4-3 strains were separately tagged and expressed with 6His tag and GST tag, and purified. His-CA and GST-CA were mixed at high-salt concentrations, and the level of polymerization of capsid proteins was detected using GST antibody labeled with Eu3+-Cryptate (energy donor) and His antibody labeled with XL665 (energy acceptor). […]
His-CA was diluted to […] in a clean tube with protein diluent (50 mM Tris-HCl, pH 8.0, 50 mM NaCl, 0.4 mM MgCl2, 0.05% Triton X-100, 2% glycerol) while MAb Anti 6HIS-XL665 at a final concentration of 260 nM was added; GST-CA was diluted to 20 nM with protein diluent in another clean tube while MAb Anti GST-Eu cryptate at a final concentration of 3.33 nM was added and incubated on ice for half an hour. […] After incubation, the samples were excited with an excitation light at 337 nM, and signal values at 620 nM and 665 nM were collected for detection, wherein Ratio values=(665 nM/620 nM signal)*10000 was calculated according to the signal values. EC50 values for compounds were calculated using Graphpad Prism software based on each concentration of the compounds and the corresponding Ratio values.
For orientation: In TR-FRET formats the signal depends on donor and acceptor labels being close together.

A short description of series [1]: Long-term/accelerated stability.
Series [2] is described as follows: Stability under influencing factors (high temperature, high humidity, open, 30 days).
Series [3] is described as follows: Hygroscopicity of salt crystal forms (DVS, 25° C.). Format: physicochemical. As for the experimental part: The test adopts SMS DVS Advantage, at 25° C., with a humidity range of 0 to 95% and a step of 10%. The judgment standard is that the dM/dT of each gradient mass change is less than 0.002%, TMAX is 360 minutes, and the cycle is two times. • 5. Cation chromatography • Instrument model: DIONEX AQUION ion chromatograph, USA • Detection method: conductivity; separation column: IonPac CS16-CG16 • Eluent: MSA 20Mm • Flow rate: 1.0 ml/min • 6. Anion chromatography • Instrument model: DIONEX INTEGRION HPIC ion chromatograph, USA • Detection method: conductivity; separation column: DionexIonPac™-AS11-HC • Eluent: EGC-500-KOH • Flow rate: 1.5 ml/min
Using Surface Measurement Systems advantage, at 25° C., the humidity starts from 50%, the humidity range is 0% to 95%, the step is 10%. The judgment standard was that the dM/dT of each gradient mass change is less than 0.002%, TMAX360 min, and the cycle was two times. The hygroscopicity of different salt crystal forms of the compound of formula I was investigated respectively.

Turning to `CC(C)(C#Cc1nc([C@H](Cc2cc(F)cc(F)c2)NC(=O)Cn2nc(C(F)(F)F)c3c2C(F)(F)[C@@H]2C[C@H]32)c(-c2ccc(Cl)c3c(NS(C)(=O)=O)nn(CC(F)(F)F)c23)c2c1CCC2)S(C)(=O)=O` (atropisomer, axis not shown; (aR)) [The compound of formula (I), N—((S)-1-((R)-4-(4-chloro-3-(methanesulfonamide)-1-(2,2,2-trifluoroethyl)-1H-indazol-7-yl)-1-(3-methyl-3-(methylsulfonyl)but-1-yn-1-yl)-6,7-dihydro-5H-cyclopenta[c]pyridin-3-yl)-2-(3,5-difluorophenyl)ethyl)-2-((3bS,4aR)-5,5-difluoro-3-(trifluoromethyl)-3b,4,4a,5-tetrahydro-1H-cyclopropa[3,4]cyclopenta[1,2-c]pyrazol-1-yl)acetamide], on HIV-1 capsid protein, it took 9 nM to reach a half-maximal effect (EC50) and the maximum response (Emax) (commonly the maximal effect, on the per cent scale that the assay sets) is 100%. For the same molecule, the “inhibition effect on the polymerization of HIV-1 capsid proteins” value at HIV-1 capsid protein (conclusion in words) was “significant inhibition effect”.
Take `CC(C)(C#Cc1nc(C(Cc2cc(F)cc(F)c2)NC(=O)Cn2nc(C(F)(F)F)c3c2C(F)(F)C2CC32)c(-c2ccc(Cl)c3c([N-]S(C)(=O)=O)nn(CC(F)(F)F)c23)c2c1CCC2)S(C)(=O)=O.[K+]` (centres unmarked) [Crystal form a of the potassium salt]: the Crystal form result is given as “Deliquesce” in series [1] (40° C., 75% RH); “Unchanged” in series [2] (40° C., 5 days); “Unchanged” in series [2] (40° C., 10 days); “Unchanged” in series [2] (40° C., 30 days); “Unchanged” in series [2] (60° C., 5 days); “Unchanged” in series [2] (60° C., 10 days). Moreover, the Crystal form entry is “Unchanged” in series [2] (60° C., 30 days); “Unchanged” in series [2] (75% RH, 5 days); “Unchanged” in series [2] (75% RH, 10 days); “Unchanged” in series [2] (75% RH, 30 days); “Unchanged” in series [2] (92.5% RH, 5 days); “Unchanged” in series [2] (92.5% RH, 10 days). The Crystal form result was “Unchanged” in series [2] (92.5% RH, 30 days) and “Unchanged” in series [3] (after DVS). The “physical and chemical stability (conclusion)” value is “good physical and chemical stability” in series [1] (long-term accelerated stability conditions for 6 months); “good physical and chemical stability” in series [2] (40° C., 60° C., 75% RH and 92.5% RH). The “Color, properties” value is “White solid” in series [2] (40° C., 5 days); “White solid” in series [2] (40° C., 10 days); “White solid” in series [2] (40° C., 30 days); “White solid” in series [2] (60° C., 5 days); “White solid” in series [2] (60° C., 10 days); “White solid” in series [2] (60° C., 30 days). Also, the “Color, properties” value in series [2] (75% RH, 5 days) is given as “White solid”; in series [2] (75% RH, 10 days) it was “White solid”; in series [2] (75% RH, 30 days) it was “White solid”; in series [2] (92.5% RH, 5 days), “White solid”; in series [2] (92.5% RH, 10 days), “White solid”; in series [2] (92.5% RH, 30 days) it was “White solid”. Also, the “Color, properties” value in series [2] (Start, 0 days) is listed as “White solid”. For the same molecule, the Purity % is given as 97.97% in series [2] (40° C., 5 days); 98.04% in series [2] (40° C., 10 days); 97.96% in series [2] (40° C., 30 days); 98.01% in series [2] (60° C., 5 days); 98.01% in series [2] (60° C., 10 days); 97.82% in series [2] (60° C., 30 days). The Purity % in series [2] (75% RH, 5 days) came to 97.96%; in series [2] (75% RH, 10 days), 98.04%; in series [2] (75% RH, 30 days), 98.02%; in series [2] (92.5% RH, 5 days), 97.96%; in series [2] (92.5% RH, 10 days) it was 98.04%; in series [2] (92.5% RH, 30 days) it was 98.02%. The Purity % in series [2] (Start, 0 days) is on record as 98.03%. In addition, the “Hygroscopicity 0.0% RH-95.0% RH” value in series [3] (DVS, 25° C., 0.0% RH-95.0% RH) is 8.77%. In addition, in series [3] (DVS, 25° C., 20.0% RH-80.0% RH), the “Hygroscopicity 20.0% RH-80.0% RH” value stood at 2.86%.
